Key:
Rattus norvegicus [1] = assay: Prevention of attention deficit/hyperactivity in po dosed spontaneously hypertensive stroke-prone rat assessed as prolongation of cumulative entry latency administered for 30 mins by passive avoidance response test; assay type: functional; conditions: 0.5 h, read-out: MED
Rattus norvegicus [2] = assay: Prevention of attention deficit/hyperactivity in sc dosed spontaneously hypertensive stroke-prone rat assessed as prolongation of cumulative entry latency administered for 30 mins by passive avoidance response test; assay type: functional; conditions: 0.5 h, read-out: MED

SMILES	minimal effective dose (Rattus norvegicus [1]) [mg/kg]	minimal effective dose (Rattus norvegicus [2]) [mg/kg]
Fc1ccc(Nc2nc(NCc3ncccn3)nc(Nc3ccc(F)cc3)n2)cc1	0.03	–
Cl.Nc1nc(Nc2ccc(F)cc2)nc(N(Cc2ccnc(F)c2)c2ccccc2)n1	3	–
COc1ccc(Nc2nc(NCc3ncccn3)nc(Nc3ccc(F)cc3)n2)cc1	0.3	–
Fc1ccc(Nc2nc(NCc3ccncn3)nc(Nc3ccc(F)cc3)n2)cc1	0.03	–
Fc1ccc(Nc2nc(NCc3ncccn3)nc(Nc3ccccc3)n2)cc1	0.1	–
COC(=O)C(c1ccccc1)C1CCCCN1 (stereo unspecified) [METHYLPHENIDATE]	–	0.1

Reference: ChEMBL document CHEMBL3879894, “Novel pharmaceutical composition for prevention and/or treatment of attention deficit/hyperactivity disorder” (2012)
